From patent US20190062305A1, “PYRIDYL OR PYRAZINYL COMPOUNDS CARRYING A METHYL-BOUND ALPHA-AMINO ACID AMIDE GROUP” (ABBVIE DEUTSCHLAND GMBH & CO. KG, priority 2015, published 2019)
Structures can show the parent of a compound that is named as a salt.

Tests used:
5-HT2C receptor = target: T1, 5-HT2C receptor (Homo sapiens, UniProt P28335); assay: Human 5-HT2C functional assay (beta-arrestin2 recruitment, U2OS_HTR2C_β-Arrestin cells); type: cell-based; conditions: for EC50: beta-arrestin2 recruitment, U2OS_HTR2C_β-Arrestin cells, 1.5 h incubation, read-out: EC50 5-HT2C (potency in functional assay); for Emax: relative efficacy vs response to 10 μM 5-HT or maximal 5-HT effect (100%)
T1 construct: host or cells: U2OS
T1 sequence (P28335 33-458): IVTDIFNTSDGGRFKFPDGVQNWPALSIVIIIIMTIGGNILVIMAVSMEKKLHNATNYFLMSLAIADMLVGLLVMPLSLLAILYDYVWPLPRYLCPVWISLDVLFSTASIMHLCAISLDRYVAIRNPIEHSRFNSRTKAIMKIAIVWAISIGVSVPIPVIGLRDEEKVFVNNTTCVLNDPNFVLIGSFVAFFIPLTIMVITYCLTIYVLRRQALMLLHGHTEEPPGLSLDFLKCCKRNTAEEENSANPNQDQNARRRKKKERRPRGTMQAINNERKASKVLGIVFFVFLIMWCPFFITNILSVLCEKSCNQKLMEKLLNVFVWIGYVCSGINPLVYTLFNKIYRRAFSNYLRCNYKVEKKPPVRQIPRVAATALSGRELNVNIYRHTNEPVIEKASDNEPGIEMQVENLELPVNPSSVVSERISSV
T1 sequence (P32121 whole entry partner): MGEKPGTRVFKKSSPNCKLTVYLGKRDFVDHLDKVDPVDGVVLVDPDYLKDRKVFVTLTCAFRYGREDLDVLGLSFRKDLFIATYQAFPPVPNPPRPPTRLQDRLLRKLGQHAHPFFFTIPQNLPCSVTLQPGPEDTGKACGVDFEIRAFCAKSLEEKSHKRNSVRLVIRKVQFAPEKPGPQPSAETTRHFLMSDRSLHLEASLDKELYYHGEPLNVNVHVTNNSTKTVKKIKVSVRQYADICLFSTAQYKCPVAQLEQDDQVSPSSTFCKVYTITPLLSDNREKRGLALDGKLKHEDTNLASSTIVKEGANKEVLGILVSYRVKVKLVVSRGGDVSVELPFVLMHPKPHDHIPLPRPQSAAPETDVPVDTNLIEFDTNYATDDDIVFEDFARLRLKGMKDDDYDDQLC
Method in brief: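 EC50 and relative efficacy came from 4-parameter variable-slope fits, normalised to 10 µM 5-HT or maximal 5-HT response (100%). Luminescent β-galactosidase enzyme-complementation signal was read after 1.5 h compound exposure in U2OS_HTR2C_β-Arrestin cells held in 1% serum medium from the prior day.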

[1] = Metabolic stability in human liver microsomes, unbound intrinsic clearance (Cl int/fu mic); type: in vitro ADME; conditions: 0.5 μM compound, NADPH; for CLint scaled at 0.5 μM: human, liver microsomes, pH 7.4, human liver microsomes 0.25 mg/mL, read-out: Cl int, mic unb. (h) [l/h/kg] (unbound intrinsic clearance, human); for Cl int, mic unb. (h) [l/h/kg] (unbound intrinsic clearance, human): human liver microsomes 0.25 mg/mL
Method: Samples of the tested compounds (0.5 μM) were preincubated together with human liver microsomes (0.25 mg of microsomal protein/mL) in 0.05 M potassium phosphate buffer of pH 7.4 in microtiter plates at 37° C. for 5 minutes. The reaction was started by adding NADPH (1.0 mM). After 0, 5, 10, 15, 20 and 30 minutes, an aliquot was removed, the reaction was cooled and stopped by adding twice the amount of quench solution consisting of acetonitrile/methanol 1:1, and containing 0.2 μM carbutamide as internal standard. The samples were frozen until analyzed. The remaining concentration of undegraded test substance was determined by liquid chromatography-tandem mass spectrometry (LC-MS/MS). The half-life (t1/2) was determined from the gradient of the ratio of the signal of (test substance/internal standard)/unit time plot, allowing the calculation of the half-life of the test substance, assuming first order kinetics, from the decrease in the concentration of the compound with time. The microsomal clearance ([…]) was calculated as follows: […]=((ln(2)/t 1⁄2)/Microsomal Protein Concentration (mg/ml))*1000, leading to the unit of uL/min/mg. The scaled clearance (mClin_scaled) was calculated as […]_scaled=m CLint*(Microsomal Yield (mg/kg BW))/1000000*60, leading to the units L/h/kg. The Microsomal Yield is defined by the specifics of the used microsomes. Calculations were modified from references: Di, The Society for Biomolecular Screening, 2003, 453-462; Obach, D M D, 1999 vol 27. N 11, 1350-1359. A suspension of 0.25 mg/ml microsomal protein spiked with 0.5 μM of test compound was pipetted on one side of a HTDialysis device (HTDialysis LLC, 37 Ledgewood Drive, Gales Fery CT 06335) separated by a membrane with a MWcut off 12-14 K. 50 mM K-Phosphate buffer (pH 7.4) was added on the other side of the well. After incubation at 37° C. for 4 h while shaking at 150 rpm, aliquots of both sides were taken, quenched with MeOH/ACN 1:1 and 0.2 μM of internal standard and frozen until analysis by LCMSMS Cl int unbound=Cl int/fu mic

For `COc1nc(N(C)C2CC2)c(F)cc1CNC(=O)[C@@H]1CCCN1` [Example 147, (2S)—N-[[6-[N-Cyclopropyl-N-methyl-amino]-5-fluoro-2-methoxy-3-pyridyl]methyl]pyrrolidine-2-carboxamide; 2,2,2-trifluoroacetic Acid], which EC50 (5-HT2C receptor) is on record?
The EC50 was 0.2 to 1 µM.

And the Emax (5-HT2C receptor)?
The Emax was 50 to 70%.

And the CLint scaled at 0.5 μM [1]?
Its CLint scaled at 0.5 μM is 5 to 50 L/h/kg.

What does the source list for `COc1nc(OC2CCC(F)(F)CC2)c(F)cc1CN(C)C(=O)[C@@H]1CCCN1` [Example 114, (2S)—N-[[6-(4,4-Difluorocyclohexoxy)-5-fluoro-2-methoxy-3-pyridyl]methyl]-N-methyl-pyrrolidine-2-carboxamide Hydrochloride]?
EC50 (5-HT2C receptor): < 0.02 µM; Emax (5-HT2C receptor): > 70%; CLint scaled at 0.5 μM [1]: 5 to 50 L/h/kg

Which EC50 (5-HT2C receptor) does the source give for `COc1nc(OC2CCCC(F)(F)C2)c(F)cc1CNC(=O)[C@@H]1CCCN1` (stereo partly drawn) [Example 58, (2S)—N-[[6-(3,3-Difluorocyclohexoxy)-5-fluoro-2-methoxy-3-pyridyl]methyl]-pyrrolidine-2-carboxamide; 2,2,2-trifluoroacetic Acid] here?
Its EC50 is < 0.02 µM.

What about the Emax (5-HT2C receptor) of the same molecule?
Its Emax is > 70%.

What about the CLint scaled at 0.5 μM [1] of the same molecule?
Its CLint scaled at 0.5 μM is < 5 L/h/kg.

What does the source list for `COc1nc(OCC2(C(F)(F)F)CC2)c(F)cc1CN(C)C(=O)[C@@H]1CCCN1C` [Example 98, (2S)—N-[[5-Fluoro-2-methoxy-6-[[1-(trifluoromethyl)cyclopropyl]methoxy]-3-pyridyl]methyl]-N,1-dimethyl-pyrrolidine-2-carboxamide Hydrochloride]?
EC50 (5-HT2C receptor): 0.02 to 0.2 µM; Emax (5-HT2C receptor): 50 to 70%; CLint scaled at 0.5 μM [1]: < 5 L/h/kg

For `COc1nc(N[C@H]2CC[C@@H](C(F)(F)F)CC2)c(F)cc1CNC(=O)[C@@H]1CCCN1` [Example 141, (2S)—N-[[5-Fluoro-2-methoxy-6-[[cis-4-(trifluoromethyl)cyclohexyl]amino]-3-pyridyl]methyl]pyrrolidine-2-carboxamide], which EC50 (5-HT2C receptor) is on record?
The EC50 was < 0.02 µM.

And the Emax (5-HT2C receptor)?
Its Emax is > 70%.

What about the “Cl int, mic unb. (h) [l/h/kg] (unbound intrinsic clearance, human)” value [1] of the same molecule?
Its value is “+ (from 50 to 500 l/h/kg)”.

Which EC50 (5-HT2C receptor) does the source give for `COc1nc(N2CCC(CC(F)(F)F)C2)c(F)cc1CNC(=O)[C@@H]1CCCN1` (stereo partly drawn) [Example 187, (2S)—N-[[5-Fluoro-2-methoxy-6-[3-(2,2,2-trifluoroethyl)pyrrolidin-1-yl]-3-pyridyl]methyl]pyrrolidine-2-carboxamide; 2,2,2-trifluoroacetic Acid] here?
Its EC50 is 0.02 to 0.2 µM.

And the Emax (5-HT2C receptor)?
The Emax was > 70%.

What about the CLint scaled at 0.5 μM [1] of the same molecule?
The CLint scaled at 0.5 μM was 5 to 50 L/h/kg.

Which results are given for `CCCN(Cc1ccccc1)c1nc(OC)c(CNC(=O)[C@@H]2CCCN2)cc1F` [Example 171, (2S)—N-[[6-[Benzyl(propyl)amino]-5-fluoro-2-methoxy-3-pyridyl]methyl]-pyrrolidine-2-carboxamide Hydrochloride]?
EC50 (5-HT2C receptor): 0.2 to 1 µM; Emax (5-HT2C receptor): > 70%; CLint scaled at 0.5 μM [1]: 5 to 50 L/h/kg

With `COc1nc(OC2CCC(OC)CC2)c(F)cc1CNC(=O)[C@@H]1CCCN1C` (stereo partly drawn) [Example 13, (2S)—N-[[5-Fluoro-2-methoxy-6-(4-methoxycyclohexoxy)-3-pyridyl]methyl]-1-methyl-pyrrolidine-2-carboxamide; Fumaric Acid] as the molecule, how does the EC50 (5-HT2C receptor) read?
The EC50 was 0.02 to 0.2 µM.

And the Emax (5-HT2C receptor)?
The Emax was > 70%.

What about the CLint scaled at 0.5 μM [1] of the same molecule?
Its CLint scaled at 0.5 μM is < 5 L/h/kg.

With `COc1nc(N2CCC(Oc3ccccc3)CC2)c(F)cc1CNC(=O)[C@@H]1CCCN1` [Example 195, (2S)—N-[[5-Fluoro-2-methoxy-6-(4-phenoxy-1-piperidyl)-3-pyridyl]methyl]-pyrrolidine-2-carboxamide; 2,2,2-trifluoroacetic Acid] as the molecule, how does the EC50 (5-HT2C receptor) read?
The EC50 was 0.02 to 0.2 µM.

And the Emax (5-HT2C receptor)?
Its Emax is > 70%.

What about the CLint scaled at 0.5 μM [1] of the same molecule?
Its CLint scaled at 0.5 μM is 50 to 500 L/h/kg.

What does the source list for `COc1nc(NC2CCC2)c(F)cc1CNC(=O)[C@@H]1CCCN1` [Example 146, (2S)—N-[[6-(Cyclobutylamino)-5-fluoro-2-methoxy-3-pyridyl]methyl]pyrrolidine-2-carboxamide; 2,2,2-trifluoroacetic Acid]?
EC50 (5-HT2C receptor): 0.02 to 0.2 µM; Emax (5-HT2C receptor): > 70%; CLint scaled at 0.5 μM [1]: < 5 L/h/kg

Which results are given for `COc1nc(OC2CC(F)(F)C2)c(F)cc1CNC(=O)[C@H](C)N1CCC1` [Example 101, (2S)-2-(Azetidin-1-yl)-N-[[6-(3,3-difluorocyclobutoxy)-5-fluoro-2-methoxy-3-pyridyl]methyl]propanamide Hydrochloride]?
EC50 (5-HT2C receptor): < 0.02 µM; Emax (5-HT2C receptor): > 70%; CLint scaled at 0.5 μM [1]: < 5 L/h/kg

Which results are given for `COCCCc1nc(OC)c(CNC(=O)[C@@H]2CCCN2)cc1F` [Example 168, (2S)—N-[[5-Fluoro-2-methoxy-6-(3-methoxypropyl)-3-pyridyl]methyl]pyrrolidine-2-carboxamide]?
EC50 (5-HT2C receptor): 0.2 to 1 µM; Emax (5-HT2C receptor): > 70%; CLint scaled at 0.5 μM [1]: < 5 L/h/kg

Which EC50 (5-HT2C receptor) does the source give for `COc1nc(OC2CCC(F)(F)CC2)c(F)cc1CNC(=O)C(C)N1CCC1` (stereo not drawn) [Example 43, 2-(Azetidin-1-yl)-N-[[6-(4,4-difluorocyclohexoxy)-5-fluoro-2-methoxy-3-pyridyl]-methyl]propanamide; Succinic Acid] here?
The EC50 was 0.02 to 0.2 µM.

What about the Emax (5-HT2C receptor) of the same molecule?
Its Emax is > 70%.

What about the CLint scaled at 0.5 μM [1] of the same molecule?
The CLint scaled at 0.5 μM was < 5 L/h/kg.

With `COc1nc(C2=CCC(C(F)(F)F)CC2)c(F)cc1CNC(=O)[C@@H]1CCCN1` (stereo partly drawn) [Example 140, (2S)—N-[[5-Fluoro-2-methoxy-6-[4-(trifluoromethyl)cyclohexen-1-yl]-3-pyridyl]methyl]pyrrolidine-2-carboxamide] as the molecule, how does the EC50 (5-HT2C receptor) read?
The EC50 was < 0.02 µM.

What about the Emax (5-HT2C receptor) of the same molecule?
Its Emax is > 70%.

And the CLint scaled at 0.5 μM [1]?
Its CLint scaled at 0.5 μM is 5 to 50 L/h/kg.

With `COc1nc(OC2CC(F)(F)C2)c(F)cc1CNC(=O)[C@@H]1C[C@@H](F)CN1` [Example 94, (2S,4R)—N-[[6-(3,3-Difluorocyclobutoxy)-5-fluoro-2-methoxy-3-pyridyl]methyl]-4-fluoro-pyrrolidine-2-carboxamide Hydrochloride] as the molecule, how does the EC50 (5-HT2C receptor) read?
Its EC50 is < 0.02 µM.

What about the Emax (5-HT2C receptor) of the same molecule?
The Emax was > 70%.

What about the CLint scaled at 0.5 μM [1] of the same molecule?
Its CLint scaled at 0.5 μM is < 5 L/h/kg.

What does the source list for `COc1nc(OC2CCC(C(F)(F)F)CC2)c(F)cc1CNC(=O)[C@@H]1CCN1C` (stereo partly drawn) [Example 38, (2S)—N-[[5-Fluoro-2-methoxy-6-[4-(trifluoromethyl)cyclohexoxy]-3-pyridyl]methyl]-1-methyl-azetidine-2-carboxamide; Succinic Acid]?
EC50 (5-HT2C receptor): 0.02 to 0.2 µM; Emax (5-HT2C receptor): 50 to 70%; CLint scaled at 0.5 μM [1]: 5 to 50 L/h/kg

Which EC50 (5-HT2C receptor) does the source give for `COc1nc(C2CCCCC2)c(F)cc1CNC(=O)[C@@H]1CCCN1` [Example 132, (2S)—N-[(6-Cyclohexyl-5-fluoro-2-methoxy-3-pyridyl)methyl]pyrrolidine-2-carboxamide; 2,2,2-trifluoroacetic Acid] here?
The EC50 was < 0.02 µM.

What about the Emax (5-HT2C receptor) of the same molecule?
Its Emax is > 70%.

What about the CLint scaled at 0.5 μM [1] of the same molecule?
Its CLint scaled at 0.5 μM is 50 to 500 L/h/kg.

For `COc1nc(N[C@H]2CC[C@H](C(F)(F)F)CC2)c(F)cc1CNC(=O)[C@@H]1CCCN1` [Example 143, (2S)—N-[[5-Fluoro-2-methoxy-6-[[trans-4-(trifluoromethyl)cyclohexyl]amino]-3-pyridyl]methyl]pyrrolidine-2-carboxamide], which EC50 (5-HT2C receptor) is on record?
Its EC50 is < 0.02 µM.

What about the Emax (5-HT2C receptor) of the same molecule?
Its Emax is > 70%.

And the “Cl int, mic unb. (h) [l/h/kg] (unbound intrinsic clearance, human)” value [1]?
Its value is “+ (from 50 to 500 l/h/kg)”.

For `COc1nc(OC2CCC(O)CC2)c(F)cc1CNC(=O)[C@@H]1CCCN1` (stereo partly drawn) [Example 81, (2S)—N-[[5-Fluoro-6-(4-hydroxycyclohexoxy)-2-methoxy-3-pyridyl]methyl]-pyrrolidine-2-carboxamide; 2,2,2-trifluoroacetic Acid], which EC50 (5-HT2C receptor) is on record?
The EC50 was 0.2 to 1 µM.

And the Emax (5-HT2C receptor)?
Its Emax is > 70%.

And the CLint scaled at 0.5 μM [1]?
Its CLint scaled at 0.5 μM is < 5 L/h/kg.

With `COc1nc(OC2CCC(F)(F)CC2)c(F)cc1CNC(=O)[C@@H]1C[C@@H](C)CN1C` [Example 61, (2S,4R)—N-[[6-(4,4-Difluorocyclohexoxy)-5-fluoro-2-methoxy-3-pyridyl]methyl]-1,4-dimethyl-pyrrolidine-2-carboxamide Hydrochloride] as the molecule, how does the EC50 (5-HT2C receptor) read?
Its EC50 is 0.02 to 0.2 µM.

What about the Emax (5-HT2C receptor) of the same molecule?
Its Emax is > 70%.

What about the CLint scaled at 0.5 μM [1] of the same molecule?
Its CLint scaled at 0.5 μM is 5 to 50 L/h/kg.
